From article PMC2248166, “Quantitative peptide binding motifs for 19 human and mouse MHC class I molecules derived using positional scanning combinatorial peptide libraries” (Immunome Research, 2008)

What was measured:
HLA A*0201 = HLA A*0201 (Homo sapiens, UniProt P04439, D140Y/D185E/D98H/E176V/E277Q/G131W/G231S/I119V/I121R/I166T/I218V/L300P/L318F/N151K/N90K/P208A/P217A/Q86G/Q94H/R138H/R169H/T345S); settings: positional scanning combinatorial 9-mer library; normalized to 1.0 for the best residue at each position
H-2 D^d = H-2 D^d (Mus musculus, UniProt P01900); assay type: binding
H-2 K^k = H-2 K^k (Mus musculus, UniProt P04223); assay type: binding
H-2 D^b = H-2 D^b (Mus musculus, UniProt P01899); assay type: binding
HLA B*3501 = HLA B*3501 (Homo sapiens, UniProt P01889, A329T/A93T/A95T/C349S/D201E/D98Y/E176V/E187L/E204Q/E69T/I218V/K202T/L119I/Q94N/R155S/R180L/S121R/S35A/S48A/T118I/V127L/V306I/V36M/Y140S/Y91F); assay type: binding
HLA A*6802 = HLA A*6802 (Homo sapiens, UniProt P04439, A269V/D140Y/D185E/E176V/E277Q/E87N/F33Y/G231S/I121R/I166T/I218V/L180W/L300P/L318F/N151K/P208A/P217A/Q86R/R138H/R169H/S129P/T345S/V36M); assay type: binding
HLA B*5801 = HLA B*5801 (Homo sapiens, UniProt P01889, A329T/C349S/D201E/D98Y/E176V/E187L/E204Q/E69T/G107R/I218V/I90N/K202T/L105A/L119I/N104I/N87E/Q89R/Q94S/R106L/R155S/R180L/R86G/S101N/S121R/S35A/S48A/T118I/V127L/V306I/V36M/Y140S/Y91M); assay type: binding
HLA A*3201 = HLA A*3201 (Homo sapiens, UniProt P04439, A270S/D101S/D185E/E176V/E277Q/F133L/G103R/G107R/G231S/H175R/I121M/I218V/I322F/K168Q/L105A/L300P/L318F/M331R/P208A/P217A/Q94H/R106L/R138Q/S129P/T104I/T323A/T345S/V100E/V321M/V358M); test: biochemical; assay type: binding
HLA B*0702 = HLA B*0702 (Homo sapiens, UniProt P01889); assay type: binding; settings: positional scanning combinatorial 9-mer library; normalized to 1.0 for the best residue at each position
HLA B*1503 = HLA B*1503 (Homo sapiens, UniProt P01889, A329T/A93T/A95T/C349S/D201E/D98Y/E187L/E204Q/K202T/N87E/Q94N/R155S/R180L/S121R/S35A/V306I/V36M/Y140S/Y91S); test: biochemical; assay type: binding
HLA B*5101 = HLA B*5101 (Homo sapiens, UniProt P01889, A329T/A93T/A95T/C349S/D138N/D201E/D98Y/E187L/E204Q/E69T/G107R/I218V/K202T/L105A/L119W/N104I/Q94N/R106L/R155S/R180L/S101N/S121T/S35A/S48A/V306I/V36M/Y195H/Y91F); assay type: binding
HLA B*1501 = HLA B*1501 (Homo sapiens, UniProt P01889, A329T/A93T/A95T/C349S/D201E/D98Y/E187L/E204Q/E69M/E70A/K202T/N87E/Q94N/R155S/R180W/S121R/S35A/S48A/V306I/V36M/Y140S/Y91S); test: biochemical; assay type: binding
HLA B*0801 = HLA B*0801 (Homo sapiens, UniProt P01889, A93T/A95T/D138N/E176V/E187T/K202T/Q94N/R180D/S35A/V36M/Y33D/Y91F); test: biochemical; assay type: binding
HLA B*5802 = HLA B*5802 (Homo sapiens, UniProt P01889, A329T/C349S/D201E/D98Y/E176V/E187L/E204Q/E69T/G107R/I218V/I90N/K202T/L105A/N104I/N87E/Q89R/Q94S/R106L/R155S/R180L/R86G/S101N/S121W/S35A/S48A/V127L/V306I/V36M/Y140S/Y91M); assay type: binding
HLA B*5401 = HLA B*5401 (Homo sapiens, UniProt P01889, A329T/C349S/D138N/D201E/E176V/E187T/E204Q/E69G/I76V/K202T/L119W/R155S/R180L/S121T/S35A/S48A/V127L/V306I/V36M/Y140L); assay type: binding
HLA B*5301 = HLA B*5301 (Homo sapiens, UniProt P01889, A329T/A93T/A95T/C349S/D201E/D98Y/E176V/E187L/E204Q/E69T/G107R/I218V/K202T/L105A/L119I/N104I/Q94N/R106L/R155S/R180L/S101N/S121R/S35A/S48A/T118I/V127L/V306I/V36M/Y140S/Y91F); assay type: binding
HLA B*2705 = HLA B*2705 (Homo sapiens, UniProt P01889, D138H/D201E/E176V/E204Q/G107R/H137Y/K202T/N104T/N87E/Q56L/Q94K/R106L/R155S/R180L/S101D/S121N/S48T/Y140D/Y33H/Y91C); assay type: binding; settings: positional scanning combinatorial 9-mer library; normalized to 1.0 for the best residue at each position
HLA A*3001 = HLA A*3001 (Homo sapiens, UniProt P04439, D140H/D185E/E176W/F33S/G80R/H175R/K168Q/R138E/R41S); test: biochemical; assay type: binding

Sequence of H-2 D^d (P01900 whole entry, looked up): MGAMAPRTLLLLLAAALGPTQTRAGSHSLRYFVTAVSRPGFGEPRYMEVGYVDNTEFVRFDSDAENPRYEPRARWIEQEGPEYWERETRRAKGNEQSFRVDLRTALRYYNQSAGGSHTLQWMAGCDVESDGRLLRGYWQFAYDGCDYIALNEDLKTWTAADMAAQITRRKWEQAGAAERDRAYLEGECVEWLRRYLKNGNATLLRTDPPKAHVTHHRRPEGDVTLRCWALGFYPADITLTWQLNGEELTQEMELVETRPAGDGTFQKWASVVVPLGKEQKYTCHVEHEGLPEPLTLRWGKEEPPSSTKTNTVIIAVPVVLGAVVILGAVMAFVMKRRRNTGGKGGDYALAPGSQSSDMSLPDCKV
Sequence of H-2 K^k (P01887 21-119): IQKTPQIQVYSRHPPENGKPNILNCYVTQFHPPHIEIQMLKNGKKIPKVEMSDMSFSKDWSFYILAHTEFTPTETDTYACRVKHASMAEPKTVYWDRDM
Sequence of H-2 K^k (P04223 22-369): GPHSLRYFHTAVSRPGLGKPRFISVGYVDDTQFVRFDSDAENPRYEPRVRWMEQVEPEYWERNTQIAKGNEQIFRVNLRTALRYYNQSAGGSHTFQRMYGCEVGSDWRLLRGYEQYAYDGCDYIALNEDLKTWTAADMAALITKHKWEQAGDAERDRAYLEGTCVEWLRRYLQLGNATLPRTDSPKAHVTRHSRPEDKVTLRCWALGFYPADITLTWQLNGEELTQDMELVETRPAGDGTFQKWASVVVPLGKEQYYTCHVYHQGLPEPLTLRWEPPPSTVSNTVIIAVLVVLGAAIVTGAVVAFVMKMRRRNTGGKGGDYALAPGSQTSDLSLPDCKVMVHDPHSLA
Sequence of H-2 D^b (P01887 21-119): as the sequence (P01887 21-119) above
Sequence of H-2 D^b (P01899 25-362): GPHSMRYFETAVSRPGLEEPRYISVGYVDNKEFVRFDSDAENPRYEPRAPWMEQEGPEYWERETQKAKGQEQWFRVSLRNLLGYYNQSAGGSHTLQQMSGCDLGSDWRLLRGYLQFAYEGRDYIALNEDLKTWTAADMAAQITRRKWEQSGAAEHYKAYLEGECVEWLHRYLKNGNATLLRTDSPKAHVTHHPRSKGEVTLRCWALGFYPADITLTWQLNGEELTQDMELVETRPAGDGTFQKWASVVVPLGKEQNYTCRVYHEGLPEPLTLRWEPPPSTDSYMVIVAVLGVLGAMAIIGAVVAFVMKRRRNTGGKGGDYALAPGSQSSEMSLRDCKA

Sequence | Normalized average relative binding affinity (ARB), HLA A*0201 (HLA A*0201) | Normalized average relative binding affinity (ARB), H-2 Dd (H-2 D^d) | Normalized average relative binding affinity (ARB), H-2 Kk (H-2 K^k) | Normalized average relative binding affinity (ARB), H-2 Db (H-2 D^b) | Normalized average relative binding affinity (ARB), HLA B*3501 (HLA B*3501) | Normalized average relative binding affinity (ARB), HLA A*6802 (HLA A*6802) | Normalized average relative binding affinity (ARB), HLA B*5801 (HLA B*5801) | Normalized average relative binding affinity (ARB), HLA A*3201 (HLA A*3201) | Normalized average relative binding affinity (ARB), HLA B*0702 (HLA B*0702) | Normalized average relative binding affinity (ARB), HLA B*1503 (HLA B*1503) | Normalized average relative binding affinity (ARB), HLA B*5101 (HLA B*5101) | Normalized average relative binding affinity (ARB), HLA B*1501 (HLA B*1501) | Normalized average relative binding affinity (ARB), HLA B*0801 (HLA B*0801) | Normalized average relative binding affinity (ARB), HLA B*5802 (HLA B*5802) | Normalized average relative binding affinity (ARB), HLA B*5401 (HLA B*5401) | Normalized average relative binding affinity (ARB), HLA B*5301 (HLA B*5301) | Normalized average relative binding affinity (ARB), HLA B*2705 (HLA B*2705) | Normalized average relative binding affinity (ARB), HLA A*3001 (HLA A*3001)
RXXXXXXXX [3064.0015] | 0.084 | 0.41 | 0.11 | 0.12 | 0.045 | 0.044 | 0.79 | 0.97 | 1.0 | 0.56 | 0.028 | 0.67 | 0.19 | 0.52 | 0.027 | 0.020 | 1.0 | 1.0
SXXXXXXXX [3064.0016] | 0.10 | 0.24 | 0.54 | 0.12 | 0.10 | 0.41 | 0.16 | 0.39 | 0.35 | 0.50 | 0.051 | 0.42 | 1.0 | 0.097 | 0.056 | 0.055 | 0.19 | 0.32
TXXXXXXXX [3064.0017] | 0.094 | 0.25 | 0.65 | 0.096 | 0.14 | 0.29 | 0.12 | 0.11 | 0.12 | 0.14 | 0.089 | 0.13 | 0.076 | 0.062 | 0.026 | 0.027 | 0.12 | 0.050
VXXXXXXXX [3064.0018] | 0.062 | 0.80 | 0.13 | 0.094 | 0.11 | 0.038 | 0.74 | 0.28 | 0.14 | 0.22 | 0.17 | 0.14 | 0.047 | 0.21 | 0.032 | 0.018 | 0.16 | 0.074
WXXXXXXXX [3064.0019] | 0.057 | 1.0 | 0.80 | 0.16 | 0.23 | 0.19 | 0.29 | 0.059 | 0.25 | 0.27 | 0.11 | 0.44 | 0.20 | 0.11 | 0.14 | 0.17 | 0.41 | 0.020
XAXXXXXXX [3064.0021] | 0.0018 | 0.025 | 0.047 | 0.64 | 0.88 | 0.12 | 0.48 | 0.11 | 0.086 | 0.13 | 0.54 | 0.57 | 0.41 | 0.035 | 1.0 | 0.44 | 0.0054 | 0.89
